According to US9173935B2, “Phospholipid drug analogs” (Telormedix SA, priority 2010, dated 2015):
Values joined by “and” are separate entries in the source; they are usually repeats but may differ in a detail not shown here. Equal entries are not always repeated. Where two headings read alike, the source gives them in different places.

Columns and labels:
[1] = molecular target: CYP3A4 (Homo sapiens (Human), UniProt P08684); experiment: Fluorescent High Throughput P450 assay, CYP3A4; assay type: biochemical; conditions: substrate BFC; read-out: CYP3A4 IC50 (Mean ± S.D.)
Sequence of CYP3A4 (P08684 whole entry, looked up): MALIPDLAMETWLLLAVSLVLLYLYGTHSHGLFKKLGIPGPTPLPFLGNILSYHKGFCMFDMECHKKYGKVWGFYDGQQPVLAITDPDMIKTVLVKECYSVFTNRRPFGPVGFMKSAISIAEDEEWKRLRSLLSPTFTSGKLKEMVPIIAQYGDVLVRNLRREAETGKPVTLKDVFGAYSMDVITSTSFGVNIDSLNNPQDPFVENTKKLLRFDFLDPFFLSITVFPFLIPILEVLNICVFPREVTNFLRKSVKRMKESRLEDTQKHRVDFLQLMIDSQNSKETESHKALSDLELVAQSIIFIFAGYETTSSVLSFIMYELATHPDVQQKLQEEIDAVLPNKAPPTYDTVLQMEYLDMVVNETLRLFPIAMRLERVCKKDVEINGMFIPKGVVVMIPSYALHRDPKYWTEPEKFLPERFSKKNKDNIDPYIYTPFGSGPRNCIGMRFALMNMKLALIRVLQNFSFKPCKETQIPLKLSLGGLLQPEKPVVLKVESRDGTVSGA
Protocol: (§1) Inhibition of the P450 isoforms was measured in specific assays using specific substrates that become fluorescent upon CYP metabolism. Compounds, dissolved in ACN (acetonitrile) (CYP2E1, CYP2C8, CYP2B6, CYP3A5) or DMSO (all remaining isoforms), were tested in duplicate (n=2) in concentration-response curves (eight concentrations) in a 96-well plate containing incubation/NADPH regenerating buffer. Specific isoenzymes and substrates were added and incubated at 37° C. Reactions were terminated at different times, depending on the assays, and plates read on a Fluoroskan Ascent at the appropriate emission/excitation wavelengths. Concentration-response curves performed in duplicate for known inhibitors for each isoenzyme were tested in every assay as positive control.

[2] = molecular target: CYP2B6 (Homo sapiens (Human), UniProt P20813); experiment: Fluorescent High Throughput P450 assay, CYP2B6; assay type: biochemical; conditions: substrate EFC; read-out: CYP2B6 IC50 (Mean ± S.D.)
Sequence of CYP2B6 (P20813 whole entry, looked up): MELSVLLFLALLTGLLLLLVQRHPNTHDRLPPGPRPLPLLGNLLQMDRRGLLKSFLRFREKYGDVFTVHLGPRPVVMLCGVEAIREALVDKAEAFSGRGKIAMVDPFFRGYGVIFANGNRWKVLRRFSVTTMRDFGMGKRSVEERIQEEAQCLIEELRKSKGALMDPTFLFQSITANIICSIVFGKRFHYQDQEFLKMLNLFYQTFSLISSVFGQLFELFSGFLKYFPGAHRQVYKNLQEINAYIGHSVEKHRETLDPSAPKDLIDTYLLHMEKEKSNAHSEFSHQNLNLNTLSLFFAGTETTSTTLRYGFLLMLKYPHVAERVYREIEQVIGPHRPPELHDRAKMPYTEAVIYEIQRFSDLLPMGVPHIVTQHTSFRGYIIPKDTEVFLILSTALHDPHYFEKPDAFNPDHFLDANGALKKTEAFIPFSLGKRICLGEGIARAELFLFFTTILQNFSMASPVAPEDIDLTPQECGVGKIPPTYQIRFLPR
Protocol: as §1

[3] = molecular target: CYP2D6 (Homo sapiens (Human), UniProt P10635); experiment: Fluorescent High Throughput P450 assay, CYP2D6; assay type: biochemical; conditions: substrate AMMC; read-out: CYP2D6 IC50 (Mean ± S.D.)
Sequence of CYP2D6 (P10635 whole entry, looked up): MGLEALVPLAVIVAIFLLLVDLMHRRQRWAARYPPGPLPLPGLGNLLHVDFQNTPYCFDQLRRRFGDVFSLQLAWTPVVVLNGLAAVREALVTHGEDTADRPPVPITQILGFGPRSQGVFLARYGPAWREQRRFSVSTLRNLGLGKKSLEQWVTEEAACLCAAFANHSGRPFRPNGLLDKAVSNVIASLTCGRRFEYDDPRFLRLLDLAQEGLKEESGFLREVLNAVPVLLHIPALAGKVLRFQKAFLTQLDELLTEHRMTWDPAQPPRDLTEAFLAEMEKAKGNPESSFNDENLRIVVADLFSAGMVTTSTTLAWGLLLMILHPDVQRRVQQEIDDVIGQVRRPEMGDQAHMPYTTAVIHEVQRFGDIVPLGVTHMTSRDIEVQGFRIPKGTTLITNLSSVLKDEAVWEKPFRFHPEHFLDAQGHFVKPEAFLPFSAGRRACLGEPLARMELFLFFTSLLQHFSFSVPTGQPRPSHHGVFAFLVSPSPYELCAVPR
Protocol: as §1

[4] = Serum exposure after intravesical chronic treatment
Protocol: Serum samples were taken at time points: day 0, 2 hours, day 1, 24 hours, and day 6, 2 hours.
The plate was shaken for 10 minutes and filtered under vacuum (5-10 mm Hg). […] The plate was shaken for 10 minutes and filtered under vacuum (5-10 mm Hg). Samples were evaporated and re-suspended in 70 microliters of acetonitrile/methanol 1:1. […] Column: Acquity BEH C18 50×2.1 mm 1.7 micrometers; injection volume 5 microliters, T column 50° C. […] Column: Acquity BEH C8 50×2.1 mm 1.7 micrometers injection. volume 10 microliters, T column 50° C.

[5] = tested on: HLA-DR+/CD11c-/CD123+ pDCs; experiment: FACS analysis of plasmacytoid DC activation in whole blood; assay type: cell-based, human; conditions: 24 hours, 0.1 and 0.5 uM, three donors
Protocol: A flow cytometric analysis was performed on whole blood from three donors after treatment with two compound concentrations for 24 h. The FACS analysis for donor 1 and donor 2 was made on another day than donor 3. The compound concentrations were as follows:
The FACS analysis was used to identify whether the test compounds could induce activation of B cells, and two different subsets of dendritic cells, namely the myeloid CD11c+/CD123− DCs and the plasmacytoid CD11c−/CD123+ DCs. The following markers were studied to identify the activation status of the different subsets:
The FACS staining was performed according to the manufacturer's instructions. Lysis of red blood cells was performed before FACS staining in order to minimize auto-florescence. To include as many B cells and DCs in the study as possible the FACS analyses were performed on 500,000 cells in total for each staining. A P1 gate was set only to include relevant cells on FSC vs. SSC (see FIGS. 12-15). The results of the individual analysis were present as Mean Fluorescence Intensity
The analysis of pDCs was based on HLA-DR+/CD11c−/CD123+ cells, thus all analyzed cells were included in the HLA-DR+ (P3) gate and CD11c−/CD123+(Q1) gate. (FIGS. 13-15).

[6] = tested on: whole blood; experiment: Cytokine secretion in human whole blood assay (ELISA); assay type: cell-based
Protocol: A volume of approximately 55 mL fresh whole blood was drawn in heparinized Vacutainers from three healthy adult anonymous volunteers as described (J. A. Ida, Journal of Immunol Methods, 310, 2006, 86-99). […] Before drawing the blood, the compounds were added to 96 well round bottom plates in a 10× diluted sample at 20 ul. The compounds were diluted in RPMI media without serum but with antibiotics. Antibiotics were added at a 10× concentration. After drawing the blood, the whole blood sample was gently mixed to obtain a homogeneous sample, and 180 ul was added to each well.
After 6 hours and 24 hours incubation, plasma was removed for ELISA (IL-6, IL-10, IL-12p40 and IFN-alpha). ELISA was made at the 6 and 24 hours time point for all concentrations. After 24 hours incubation with selected compound concentrations, cells were analyzed for activation markers by FACS.
All compounds were setup in concentrations at 0-0.01-0.03-0.1-0.5-2.0-10.0 micromolar as the final concentration. Vehicle control was DMSO control, where we used the highest concentration used for the compounds. After addition of blood, all plates were gently agitated at 37° C. and 5% CO2 until harvest. The samples were removed after 6 or 24 hours incubation, and pooled into appropriate tubes (2 ml).
Concentrations of cytokines were determined by ELISA from R&D Systems. The results were analyzed in Graph Pad Prism in order to prepare dose-response
curves, and for determination of EC50 values. FACS analysis was made by using Becton-Dickinson FACSDiva software and subsequently illustrated in Graph Pad Prism.

[7] = Single dose intravenous acute toxicity study in rats; assay type: in vivo, Sprague Dawley rat; conditions: for Mortality: preliminary phase, one male and one female; for Mortality and signs of toxicity: main phase
Protocol: An additional group, similarly composed, received the vehicle alone and acted as a control. […] Clinical signs were limited to piloerection and reduced activity, observed on the day of dosing.
In the main phase, 5 male and 5 female animals were dosed at 90 mg/kg and observed for a period of 14 days. A second group, similarly constituted, received the vehicle alone and acted as control. […] In addition, one male and one female dosed at 90 mg/kg were found dead on Day 2 of the study. Twitches, ataxia, piloerection, reduced activity and hunched posture were the major signs observed in animals before death. […] Piloerection was observed up to Day 3 of the study. A second group, similarly composed, was dosed at 80 mg/kg.

[8] = Day 1, 24 hours, LLOQ 0.5 ng/ml SC12, 2.5 ng/ml Imiquimod
[9] = Day 6, 2 hours, LLOQ 0.5 ng/ml SC12, 2.5 ng/ml Imiquimod

## CCCCCCCCCCCC(=O)OCC(COP(=O)(O)OCCNC(=O)c1ccc(Cn2c(=O)[nH]c3c(N)nc(OCCOC)nc32)cc1)OC(=O)CCCCCCCCCCC (stereo not shown) [SC12]
[1]
  IC50: 13.6 ± 0.7 µM
[2]
  IC50: > 100 µM
[3]
  IC50: 67 ± 3.8 µM
[4]; Day 0, 2 hours
  Levels in serum, Mean ± S.D.: 0.5 ± 0.5 ng/mL
[4]; Day 0, 2 hours, intravesical Imiquimod 208 nmol or SC12 206.5 nmol, LLOQ 0.5 ng/ml SC12, 2.5 ng/ml Imiquimod
  Levels in serum, individual mice: <LLOQ (2×) and 1.0 ng/ml and 0.5 ng/ml
[4]; [8]
  Levels in serum, Mean ± S.D.: <LLOQ
  Levels in serum, individual mice: <LLOQ
[4]; [9]
  Levels in serum, Mean ± S.D.: <LLOQ
  Levels in serum, individual mice: <LLOQ
[5]
  CD80 expression on pDCs: induces a slightly higher CD80 expression than compound A
  CD86 expression on pDCs: tendency to induce higher CD86 expression than compound A
[6]; 6 hours incubation
  IL-10 production: no IL-10 production was seen
[6]; Donor 1, read-out: EC50-IFN-alpha, 24 h Incubation
  EC50: 0.2 µM
[6]; Donor 1, read-out: EC50-IL-6, 24 h Incubation
  EC50: 0.22 µM
[6]; Donor 1, read-out: EC50-IL-10, 24 h Incubation
  EC50: 1.34 µM
[6]; Donor 1, read-out: EC50-IL-12p40, 24 h Incubation
  EC50: 4.1 µM
[6]; Donor 2, read-out: EC50-IFN-alpha, 24 h Incubation
  EC50: 0.11 µM
[6]; Donor 2, read-out: EC50-IL-6, 24 h Incubation
  EC50: 0.06 µM
[6]; Donor 2, read-out: EC50-IL-10, 24 h Incubation
  EC50: 0.41 µM
[6]; Donor 2, read-out: EC50-IL-12p40, 24 h Incubation
  EC50: 1.42 µM
[6]; Donor 3, read-out: EC50-IFN-alpha, 24 h Incubation
  EC50: 0.24 µM
[6]; Donor 3, read-out: EC50-IL-6, 24 h Incubation
  EC50: 0.17 µM
[6]; Donor 3, read-out: EC50-IL-10, 24 h Incubation
  EC50: 9 µM
[6]; Donor 3, read-out: EC50-IL-12p40, 24 h Incubation
  EC50: 14.2 µM
[6]; read-out: EC50-IFN-alpha, 6 h Incubation, Donor 1
  EC50: 0.98 µM
[6]; read-out: EC50-IFN-alpha, 6 h Incubation, Donor 2
  EC50: 0.83 µM
[6]; read-out: EC50-IFN-alpha, 6 h Incubation, Donor 3
  EC50: 1.66 µM
[6]; read-out: EC50-IL-6, 6 h Incubation, Donor 1
  EC50: 0.57 µM
[6]; read-out: EC50-IL-6, 6 h Incubation, Donor 2
  EC50: 0.18 µM
[6]; read-out: EC50-IL-6, 6 h Incubation, Donor 3
  EC50: 0.37 µM
[6]; read-out: EC50-IL-12, 6 h Incubation (IL-12p40), Donor 2
  EC50: 2.36 µM
[6]; read-out: EC50-IL-12, 6 h Incubation (IL-12p40), Donor 3
  EC50: 3.56 µM
[7]; 76 mg/kg i.v.
  Mortality: No mortality occurred
[7]; 80 mg/kg i.v.
  Mortality and signs of toxicity: no mortality and no signs of toxicity
[7]; 90 mg/kg i.v., 5 male and 5 female
  Mortality and signs of toxicity: induced mortality or significant signs of toxicity
[7]; 100 mg/kg i.v.
  Mortality: Both animals died at dosing
[7]; single intravenous dose
  Maximum tolerated dose: 80 mg/kg
